Test: Solubility of cholesteric liquid crystal monomer in hot (boiling) solvents
Assay type: physicochemical
Procedure: Comparison of the Solubility of Various Monomers in 1,3-dioxolane and other Solvents.
4-(2-Acryloyloxy-ethoxy)-benzoic acid 4′-cyano-biphenyl-4-yl ester is a cholesteric liquid crystal monomer with the structure given below and can be prepared as described in European Patent Application Publication No. 834754, incorporated herein by reference. [drawing 2]
4-(2-Acryloyloxy-ethoxy)-benzoic acid 4′-cyano-biphenyl-4-yl ester was dissolved in hot (boiling) tetrahydrofuran and hot 1,3-dioxolane. Only 20% of the monomer dissolved in the tetrahydrofuran, while 40% dissolved in the 1,3-dioxolane.

fraction of the monomer dissolved (hot 1,3-dioxolane): 40%
fraction of the monomer dissolved (hot (boiling) tetrahydrofuran): 20%
SMILES: C=CC(=O)OCCOc1ccc(C(=O)Oc2ccc(-c3ccc(C#N)cc3)cc2)cc1 [4-(2-Acryloyloxy-ethoxy)-benzoic acid 4′-cyano-biphenyl-4-yl ester]
